Experimental data taken from PMC10135569, “Does Enhanced Structural Maturity of hiPSC-Cardiomyocytes Better for the Detection of Drug-Induced Cardiotoxicity?” (Biomolecules, 2023).

Assays:
[1] = tested on: hiPSC-CMs (iCell2 Cardiomyocytes) 2D monolayers; experiment: Membrane potential (action potential) recordings with FluoVolt voltage-sensitive dye on the CellOPTIQ platform; type: cell-based, human; details: for activity at 3 µM / activity at 0.1 µM / activity at 0.3 µM / activity at 1 µM: Homo sapiens, Cardiomyocyte, 0.5 h, 30 min, delta over DMSO 0.1%
How it was run: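 iCell2 hiPSC-CM monolayers (50,000 cells/well on fibronectin or Matrix Plus, days 5–6) were loaded with FluoVolt (1:1000, 20 min, 37 °C) and imaged at 37 °C with 470 nm excitation and 510–560 nm emission sampled at 10 kHz. Spontaneous action potentials were recorded for 10 s at baseline and 30 min after drug, with one of four concentrations per well (n = 8).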

[2] = tested on: hiPSC-CMs (iCell2 Cardiomyocytes) 2D monolayers; experiment: Contractility measurements using video imaging (ContractilityTool / MUSCLEMOTION); type: cell-based, human; details: Homo sapiens, Cardiomyocyte, 0.5 h, 30 min, delta over DMSO 0.1%
How it was run: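 Monolayers on fibronectin or Matrix Plus coating, tested on days 5–6 in serum-free medium. Four concentrations, one per well, n = 8, with vehicle control.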

[3] = MM monolayer, read-out: APD30 (%DD)
[4] = MM monolayer, read-out: APD90 (%DD)
[5] = MM monolayer, read-out: CL (%DD)
[6] = MM monolayer, read-out: Trise (%DD)
[7] = read-out: APD30 (%DD), FM monolayer
[8] = read-out: APD90 (%DD), FM monolayer
[9] = read-out: CL (%DD), FM monolayer
[10] = read-out: Trise (%DD), FM monolayer
[11] = FM monolayer, read-out: CtAmp (%DD)
[12] = FM monolayer, read-out: CtD50 (%DD)
[13] = MM monolayer, read-out: CtAmp (%DD)
[14] = MM monolayer, read-out: CtD50 (%DD)

## O=C1CCCN1CC#CCN1CCCC1 [Oxotremorine]
[1]; FM monolayer, read-out: Trise (%DD)
  activity at 3 µM: 132 ± 11.2%
[1]; [3]
  activity at 0.1 µM: 104 ± 1.7%
  activity at 0.3 µM: 110 ± 3.4%
  activity at 1 µM: 110 ± 2.8%
  activity at 3 µM: 115 ± 3.8%
[1]; [4]
  activity at 0.1 µM: 104 ± 1%
  activity at 0.3 µM: 108 ± 1.1%
  activity at 1 µM: 114 ± 1.1%
  activity at 3 µM: 113 ± 1.2%
[1]; [5]
  activity at 0.1 µM: 111 ± 2.8%
  activity at 0.3 µM: 115 ± 3.3%
  activity at 1 µM: 120 ± 1.4%
  activity at 3 µM: 123 ± 1.1%
[1]; [6]
  activity at 0.1 µM: 124 ± 18.7%
  activity at 0.3 µM: 144 ± 26.3%
  activity at 1 µM: 117 ± 17%
  activity at 3 µM: 158 ± 32%
[1]; [7]
  activity at 0.1 µM: 106 ± 2.3%
  activity at 0.3 µM: 111 ± 3.3%
  activity at 1 µM: 110 ± 4.4%
  activity at 3 µM: 107 ± 3.4%
[1]; [8]
  activity at 0.1 µM: 103 ± 1.3%
  activity at 0.3 µM: 105 ± 2.8%
  activity at 1 µM: 111 ± 1.7%
  activity at 3 µM: 101 ± 2.8%
[1]; [9]
  activity at 0.1 µM: 117 ± 1.3%
  activity at 0.3 µM: 122 ± 1.8%
  activity at 1 µM: 121 ± 2.9%
  activity at 3 µM: 111 ± 3.6%
[1]; [10]
  activity at 0.1 µM: 155 ± 41.3%
  activity at 0.3 µM: 145 ± 24.3%
  activity at 1 µM: 117 ± 13.3%
[1]; both FM and MM, concentration not given
  effect on beating rate / spontaneous rate (in words): decrease
[1]; both groups (FM and MM)
  changes in the APD: < 10%
[2]; [11]
  activity at 0.1 µM: 140 ± 19.7%
  activity at 0.3 µM: 105 ± 16.5%
  activity at 1 µM: 117 ± 14.5%
  activity at 3 µM: 166 ± 17.6%
[2]; [12]
  activity at 0.1 µM: 108 ± 1.9%
  activity at 0.3 µM: 112 ± 2.5%
  activity at 1 µM: 116 ± 2.8%
  activity at 3 µM: 110 ± 1.6%
[2]; [13]
  activity at 0.1 µM: 106 ± 11.7%
  activity at 0.3 µM: 97 ± 12.9%
  activity at 1 µM: 105 ± 10.2%
  activity at 3 µM: 103 ± 7.4%
[2]; [14]
  activity at 0.1 µM: 116 ± 2.1%
  activity at 0.3 µM: 117 ± 1.1%
  activity at 1 µM: 118 ± 1.6%
  activity at 3 µM: 120 ± 2.3%
